Key:
Jurkat cells = experiment: CellTiterGlo cell viability assay; assay type: cell-based, human; conditions: 24 h; for IC50: Homo sapiens, mean of triplicates, ^b/^c values estimated, read-out: IC50±sd/μM (cell viability)
Procedure, shortened: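 Jurkat cells treated with compound titrations; viability read by CellTiter-Glo 2.0 luminescence after 10 min at room temperature, fitted to a four-parameter curve. Proteomics samples lysed in 2% SDS, 50 mM Tris pH 8.5, TCEP and CAA, sonicated, then analysed by label-free quantitation.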

full-length AAK1 = full-length AAK1 (Homo sapiens, UniProt Q2M2I8); experiment: NanoBRET target engagement assay, intact and permeabilized cells; conditions: NanoBRET, mean of duplicates
Sequence of full-length AAK1 (Q2M2I8 whole entry): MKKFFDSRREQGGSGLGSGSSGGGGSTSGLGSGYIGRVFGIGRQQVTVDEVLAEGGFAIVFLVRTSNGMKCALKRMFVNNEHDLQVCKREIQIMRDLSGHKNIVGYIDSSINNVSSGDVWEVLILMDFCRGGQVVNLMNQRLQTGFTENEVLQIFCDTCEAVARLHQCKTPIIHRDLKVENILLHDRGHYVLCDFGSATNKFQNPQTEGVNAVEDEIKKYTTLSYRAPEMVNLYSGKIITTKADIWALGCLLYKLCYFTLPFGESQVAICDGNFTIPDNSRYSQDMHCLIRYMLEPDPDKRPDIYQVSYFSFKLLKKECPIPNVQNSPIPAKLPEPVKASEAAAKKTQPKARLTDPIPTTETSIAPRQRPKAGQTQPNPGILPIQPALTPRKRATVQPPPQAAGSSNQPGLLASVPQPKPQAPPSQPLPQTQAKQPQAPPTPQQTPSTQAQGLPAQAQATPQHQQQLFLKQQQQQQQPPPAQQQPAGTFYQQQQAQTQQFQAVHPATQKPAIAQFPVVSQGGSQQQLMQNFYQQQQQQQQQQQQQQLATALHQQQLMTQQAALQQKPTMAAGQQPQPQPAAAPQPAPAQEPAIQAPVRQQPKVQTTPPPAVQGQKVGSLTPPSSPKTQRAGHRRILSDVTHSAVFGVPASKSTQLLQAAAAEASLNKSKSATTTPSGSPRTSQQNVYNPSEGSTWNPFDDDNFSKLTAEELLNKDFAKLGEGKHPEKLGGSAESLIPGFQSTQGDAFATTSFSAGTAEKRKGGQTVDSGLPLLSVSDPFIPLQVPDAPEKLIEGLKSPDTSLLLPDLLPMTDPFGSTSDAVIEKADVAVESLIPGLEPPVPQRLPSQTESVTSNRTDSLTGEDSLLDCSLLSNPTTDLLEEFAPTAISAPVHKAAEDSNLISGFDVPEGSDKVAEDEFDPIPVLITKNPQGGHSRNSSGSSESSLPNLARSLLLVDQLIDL
Procedure: (§1) Compounds were pipetted at various concentrations using an Echo acoustic dispenser (Labcyte), immediately followed by Tracer K10 (Promega, Tracer DB ID: T000008) for AAK1 and Aurora A and VHL Tracer (Promega, Tracer DB ID: T000019) for VHL, at an optimum KD concentration chosen from TracerDB ( tracerdb.org), respectively.
(§2) To measure the BRET signal, the NanoBRET® NanoGlo Substrate (Promega:
(§3) N1573) was added as per the manufacturer’s protocol, and filtered luminescence was measured on a PHERAstar plate reader (BMG Labtech) equipped with a luminescence filter pair (450 nm BP filter (donor) and 610 nm LP filter (acceptor)). For NanoBRET® measurement in permeabilized cells, 25 nL of digitonin (0.05 μg/μL) was pipetted into each well using an
(§4) After incubation, the BRET signals were measured by a PHERAstar plate reader (BMG Labtech) following the same procedure as intact NanoBRET® measurement. Competitive displacement data were then normalized to controls and were plotted using GraphPad Prism 9 software employing a normalized 3-parameter curve fit with the following equation:

AURKA = target: T1, AURKA (Homo sapiens, UniProt O14965); experiment: as above; conditions: mean of duplicates, ^a values estimated by extrapolation
T1 sequence (O14965 1-403): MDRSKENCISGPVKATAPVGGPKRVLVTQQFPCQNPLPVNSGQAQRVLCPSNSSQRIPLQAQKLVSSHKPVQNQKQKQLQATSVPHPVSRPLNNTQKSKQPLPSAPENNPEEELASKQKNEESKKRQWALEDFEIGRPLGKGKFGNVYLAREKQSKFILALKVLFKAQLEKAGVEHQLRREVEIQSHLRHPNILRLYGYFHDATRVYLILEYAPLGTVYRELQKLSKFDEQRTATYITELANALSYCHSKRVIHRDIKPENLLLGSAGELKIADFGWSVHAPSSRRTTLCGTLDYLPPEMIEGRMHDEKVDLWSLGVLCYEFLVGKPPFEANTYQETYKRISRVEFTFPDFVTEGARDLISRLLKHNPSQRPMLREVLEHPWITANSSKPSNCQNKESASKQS
Procedure: as §1, §2, §3, §4

[1] = tested on: kinase protein levels in Jurkat cells; experiment: TMT-labeled quantitative proteomics; assay type: cell-based, human; conditions: for log2FC (compound/DMSO): Jurkat, 1µM, set6
Procedure: cultured in RPMI (Thermo: 11875093) supplemented as mentioned above. Cells were seeded in 6 well plates (Greiner: 657160) at a cell density of 1·10 6 cells/well and left at 37 °C and 5% […]
50 µl of SDS Lysis Buffer (2% SDS, 50 mM TRIS pH 8.5, 10 mM TCEP, 40 mM CAA) was added to each sample. Cells were transferred into low binding reaction tubes (Eppendorf:
0030108116) and samples were boiled for 15 minutes at 95 °C and sonicated for 2 minutes.
Methanol/Chloroform Precipitation. 200 µl of methanol and 50 µl of chloroform were added to each sample reaction tube and mixed via vortex. 150 µl of milliQ-H2O were added and samples were vortexed further. Samples were centrifuged for 5 minutes at 15000 g and the aqueous layer above the interphase was removed. 150 µl of methanol was added, samples were vortexed and centrifuged for 10 minutes at 15000 g to precipitate the pellet. The aforementioned wash procedure was repeated twice before transferring the pellet to a new low bind reaction tube in which it was allowed to dry for 5 minutes.
Dissolving the Protein Pellet and Protein Quantification. 50 µl of digestion buffer (8 M Urea, 50 mM TRIS pH 8) was added to each sample before vortexing and shaking at 750 rpm at room temperature for 10 minutes to solubilize the pellet. Protein quantification via PierceTM BCA Protein Assay Kit (Thermo: 23225) was carried out according to manufacturer’s protocol.
Protein Digestion. Samples were diluted 1:2 with 50 mM TRIS pH 8.5 to reach a final concentration of 4 M Urea. Lys-C (Promega: VA1170) was added at a 1:100 enzyme/substrate ratio. Samples were agitated at 550 rpm and 37 °C for 3 h. Samples were further diluted with 50 mM TRIS pH 8.5 to a final concentration of 1 M Urea and Trypsin (Promega: V5280) was added at a 1:100 enzyme/substrate ratio. Samples were agitated overnight at 550 rpm and 37 °C. The digestion was stopped the following day via addition of TFA to a final concentration […]
Solid Phase Extraction via C18 Cartridges. Sep-Pak C18 Cartridges (Waters: WAT054955) were used for solid phase extraction of digested peptides. For preconditioning of C18 cartridges, 1 mL of methanol was added to each column followed by 1 mL of solution B (0.1% formic acid, 80% acetonitrile) and 1 mL of solution A (0.1% formic acid, ddH2O) twice. Samples […]
were loaded to their respective columns and once samples had passed, columns were washed twice with solution A to remove unwanted components from the loading step. Elution of samples was carried out via introduction of 40% and 60% acetonitrile steps. Samples were dried and snap frozen in liquid nitrogen.
TMT-Labeling. Desalted peptides were dried and resuspended in TMT-labeling buffer (200 mM EPPS pH 8.2, 20% acetonitrile). 10 μg of peptides per condition were subjected to TMT labeling with 1:2.5 peptide TMT ratio (w/w) for 1 h at room temperature. The labeling reaction was quenched by addition of hydroxylamine to a final concentration of 0.5% and incubation at room temperature for 15 minutes. Successful TMT labeling was verified by mixing equimolar ratios of peptides and subjecting the mix to single shot LC-MS/MS analysis. For high pH reversed phase fractionation on a Dionex analytical HPLC, 50 µg of pooled and purified TMT labelled samples were resuspended in 10 mM ammonium-bicarbonate (ABC), 5% acetonitrile, […]
particle size; Phenomenex) using a multistep gradient from 100% solvent A (5% acetonitrile, 10 mM ABC in water) to 60% solvent B (90% acetonitrile, 10 mM ABC in water) over 70 minutes. Eluting peptides were collected every 45 seconds into a total of 96 fractions, which were cross-concatenated into 24 fractions and dried in a vacuum concentrator and resuspended in 3% acetonitrile with 0.1% TFA for LC-MS analysis.
Mass spectrometry data acquisition. Tryptic peptides were analyzed on an Orbitrap Lumos coupled to an easy nLC 1200 (ThermoFisher Scientific) using a 35 cm long, 75 µm ID fused-

VHL = VHL (Homo sapiens, UniProt P40337); experiment: cell-based; parameters: full-length, NanoLuc fusion (Promega N2741); species or system HEK293T; NanoBRET VHL tracer displacement in permeabilized cells, NanoLuc-VHL fusion; conditions: permeabilized cells; read-out: VHL permeabilized (IC50±sd)/µM
Sequence of VHL (P40337 whole entry, the tested form may be a part): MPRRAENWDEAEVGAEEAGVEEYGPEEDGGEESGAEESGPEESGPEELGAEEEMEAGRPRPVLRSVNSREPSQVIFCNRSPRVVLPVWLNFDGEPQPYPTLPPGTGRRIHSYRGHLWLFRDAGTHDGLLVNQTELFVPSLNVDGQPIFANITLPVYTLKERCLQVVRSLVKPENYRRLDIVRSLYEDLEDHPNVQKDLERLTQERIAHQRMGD

[2] = AAK1 intact (IC50±sd)/μM, intact cells, ^a values estimated by extrapolation
[3] = AAK1 permeabilized (IC50±sd)/μM, permeabilized cells
[4] = AURKA intact (IC50±sd)/μM, intact cells
[5] = AURKA permeabilized (IC50±sd)/μM, permeabilized cells

Structure (SMILES) | IC50 (Jurkat cells) | IC50 (full-length AAK1; [2]) | IC50 (full-length AAK1; [3]) | IC50 (AURKA; [4]) | IC50 (AURKA; [5]) | effect on cell viability (cytotoxicity) (Jurkat cells) | log2FC (compound/DMSO) ([1]; protein NUDT4) | log2FC (compound/DMSO) ([1]; protein TRAV8-2) | log2FC (compound/DMSO) ([1]; protein UQCRHL;UQCRH) | log2FC (compound/DMSO) ([1]; protein hCG_2014768;TMA7) | IC50 (VHL) | kinase degradation ([1]; Jurkat cells, 1 μM, 6 h)
CC(C)(C)OC(=O)NCCCOCCOCCOCCCNC(=O)c1cc(Nc2cc(C3CC3)[nH]n2)nc(Nc2ccc(CC#N)cc2)n1 [5-L] | 5.7 ± 1.5 µM | 0.308 ± 0.032 µM | 0.07 ± 0.012 µM | ~19.7 µM | ~7.05 µM | – | – | – | – | – | – | –
Cc1ncsc1-c1ccc(CNC(=O)[C@@H]2C[C@@H](O)CN2C(=O)[C@@H](NC(=O)CCCCCCN2CCN(c3ccc(Nc4ncc(Cl)c(Nc5ccccc5C(N)=O)n4)cc3)CC2)C(C)(C)C)cc1 [6-d] | ~0.1 µM | 0.1 ± 0.008 µM | 0.053 ± 0.003 µM | 0.372 ± 0.014 µM | 0.249 ± 0.011 µM | particularly pronounced effects on cell viability | 0.05822 | -0.03607 | -0.2976 | -0.5377 | 5.83 ± 1.43 µM | –
CC(=O)N[C@H](C(=O)N1C[C@H](O)C[C@H]1C(=O)NCc1ccc(-c2scnc2C)cc1OCCOCCOCCOCCNC(=O)c1cc(Nc2cc(C3CC3)[nH]n2)nc(Nc2ccc(CC#N)cc2)n1)C(C)(C)C [5-b] | ~18.7 µM | 0.299 ± 0.038 µM | 0.192 ± 0.005 µM | ~18.5 µM | ~7.78 µM | – | – | – | – | – | 0.972 ± 0.094 µM | –
Cc1ncsc1-c1ccc(CNC(=O)[C@@H]2C[C@H](O)CN2C(=O)[C@@H](NC(=O)CCOCCOCCOCCOCCN2CCN(c3ccc(Nc4ncc(Cl)c(Nc5ccccc5C(N)=O)n4)cc3)CC2)C(C)(C)C)cc1 [6-b^neg] | – | – | – | – | – | – | -0.02087 | 0.09325 | 0.1465 | -0.2041 | – | inactive
CC(=O)N[C@H](C(=O)N1C[C@H](O)C[C@H]1C(=O)NCc1ccc(-c2scnc2C)cc1OCCOCCOCCOCCOCCC(=O)N1CCN(c2ccc(Nc3ncc(Cl)c(Nc4ccccc4C(N)=O)n3)cc2)CC1)C(C)(C)C [6-e] | – | 0.53 ± 0.246 µM | 0.123 ± 0.02 µM | ~2.2 µM | 0.861 ± 0.251 µM | no cytotoxicity was observed | – | – | – | – | 1.4 ± 0.174 µM | –
CC(C)(C)OC(=O)NCCOCCOCCOCCOCCC(=O)N1CCN(c2cc(Nc3cc(C4CC4)[nH]n3)nc(Nc3ccc(CC#N)cc3)n2)CC1 [4-L] | – | 0.099 ± 0.011 µM | 0.023 ± 0.004 µM | 1.92 ± 0.07 µM | 0.63 ± 0.021 µM | – | – | – | – | – | – | –

Source: article PMC11851430, “Workflow for E3 Ligase Ligand Validation for PROTAC Development” (ACS Chemical Biology, 2025)
